Test results published in patent US20240173389A1, “Compositions and Methods For Reducing Immune Intolerance” (LAPIX THERAPEUTICS, INC., priority 2021, published 2024).

Columns and labels:
[1] = test system: RAW264.7 mouse monocyte macrophage cells; experiment: SAR screen in RAW 264.7 cells with FVIII antigen, TNF-α ELISA (Example 5); format: cell-based; settings: for TNF-α induction: liposomal (DMPC 70:30) or free form dosed 0.001-100 μM
Description: (§1) RAW264.7 mouse monocyte macrophage cells were exposed to an increasing concentration of selected compounds in the presence of human plasma-derived FVIII as a model antigen protein. TNF-α and TGF-β production were monitored.
All molecules were formulated in RPMI media in aseptic conditions. The pH was adjusted to approximately 7.5 before dosing cells. 1,2-dimyristoyl-sn-glycero-3-phosphocholine (DM PC):PS liposomes were made at 70:30 molar ratio to make “PS” liposomes.
(§2) RAW 264.7 cells were prepared, cultured, and dosed. Cells were seeded at 4×10^5 cells/well. OPLS, OPLT and L-homocysteic acid (LHA) were dosed at 100, 85, 70, 60, 50, 30, 10, 3, 1, 0.3, 0.1, 0.03 and 0.01 mM, or at 100, 85, 70, 60, 50, 30, 10, 3 and 1 mM, as indicated. O-Benzyl-L-serine (OBLS), S-phenyl-L-cysteine (SPLC), S-benzyl-L-cysteine (SBLC) and OBLT were dosed at 100, 85, 70, 60, 50, 30, 10, 3, 1, 0.3, 0.1, 0.03, 0.01, 0.003 and 0.001 μM. Finally, 100 μl of 40 μg/ml of FVIII as a sample antigen was added to each cell. LPS and free protein were used as positive and baseline controls, respectively. TNF-α and TGF-β ELISA were conducted as per the manufacturer's instructions (R & D Systems).

TLR3 = experiment: TNF-α production by splenocytes in response to TLR3 ligand poly(I:C); format: cell-based, C57BL/6 mice; settings: 48 hours, OPLT 1.85 μg/ml, dexamethasone 100 μg/ml, rapamycin 625 μg/ml
Method: (§3) OPLT was dissolved in sterile PBS at 100 μM, and pH was adjusted to approximately 7.5. Splenocytes from naïve C57BL/6 mice were stained with CFSE, prepared, cultured, and dosed. Cells were seeded at 2×10^5 cells/well.
(§4) To evaluate the effects of OPLT on cytokine production by splenocytes in response to different TLR ligands, splenocytes were incubated with one of the following TLR ligands in triplicate: PGN, LPS, ODN CPG, dsRNA, or ssRNA, as per group assignment. Cells were then treated as follows: • Control: No treatment; • OPLT: Cells were dosed with 1.85 μg/ml; • Dexamethasone: Cells were dosed with 100 μg/ml; • Rapamycin: Cells were dosed with 625 μg/ml. Cells were incubated for 48 hours before collecting the supernatant for TNF-α analysis.
(§5) The supernatant was collected for TNF-α analysis by ELISA.

TLR9 = experiment: TNF-α production by splenocytes in response to TLR9 ligand ODN CpG; format: cell-based, C57BL/6 mice; settings: 48 hours, OPLT 1.85 μg/ml, dexamethasone 100 μg/ml, rapamycin 625 μg/ml
Method: as §3, §4, §5

TLR2 = experiment: TNF-α production by splenocytes in response to TLR2 ligand PGN; format: cell-based, C57BL/6 mice; settings: 48 hours, OPLT 1.85 μg/ml, dexamethasone 100 μg/ml, rapamycin 625 μg/ml
Method: as §3, §4, §5

TLR7 = experiment: TNF-α production by splenocytes in response to TLR7 ligand ssPolyU; format: cell-based, C57BL/6 mice; settings: 48 hours, OPLT 1.85 μg/ml, dexamethasone 100 μg/ml, rapamycin 625 μg/ml
Method: as §3, §4, §5

TLR4 = experiment: TNF-α production by splenocytes in response to TLR4 ligand LPS; format: cell-based, C57BL/6 mice; settings: 48 hours, OPLT 1.85 μg/ml, dexamethasone 100 μg/ml, rapamycin 625 μg/ml
Method: as §3, §4, §5

B57BL6 Mice = experiment: Anti-FVIII titer analysis in mice given FVIII co-mixed with compound SC QW 4 weeks, then FVIII re-challenge (Example 1); format: in vivo; settings: end of treatment after one-week washout
Method: (§6) OPLT was dissolved in sterile PBS, and pH was adjusted to approximately 7.5. OPLS, a comparator compound, was dissolved in sterile PBS, and pH was adjusted to approximately 7.5. FVIII in PBS was used as a control. For treatment, FVIII was co-mixed with OPLT, OPLS or diluted in PBS before administration, as per group assignment for each animal. For re-challenge, FVIII was administered alone SC to all animals regardless of group assignment. […] For a head-to-head comparison, 5 mg/injection was selected for OPLT. FVIII was dosed at 1 μg/injection.
The study was conducted in two parts: a treatment phase and a re-challenge phase. The objective of the treatment phase was to test the ability of OPLT to reduce the immunogenicity of FVIII as an antigen compared to animals administered FVIII or FVIII+OPLS. Animals were injected with FVIII, FVIII+OPLT, or FVIII+OPLS SC QW for 4 weeks. Blood samples were collected for anti-FVIII titer analysis after a one-week washout period from the last dose. The objective of the re-challenge phase of the study was to evaluate the duration of tolerance. Animals that have been successfully tolerized toward FVIII will not mount a robust immune response towards FVIII upon subsequent exposure to FVIII. After the washout period, animals were injected with (1 μg) FVIII SC QW for 2 weeks. Blood samples were collected one week after each FVIII injection for anti-FVIII titer analysis.

FoxP3+/CD4+ T-cell = experiment: Ex vivo flow cytometry of splenocytes for FoxP3+/CD4+ T-cells after FVIII treatment period (Example 1); format: in vivo, mice
Method: as §6
One week after the last dose in the treatment period, one animal from each group was selected at random for ex vivo analysis of the T-cell population. Spleens were collected and a single-cell suspension was prepared for cellular phenotyping by flow cytometry. Cells were stained and gated for CD4+ T-cells. FoxP3 expression level was evaluated for each animal.

Splenocytes = experiment: Splenocyte culture with anti-CD3/anti-CD28 without antigen, Foxp3+/CD4+ by flow cytometry (Example 4); format: cell-based; settings: 100 μM, three days, anti-CD3/anti-CD28, absence of any antigen
Method: Splenocytes were cultured for three days in presence of anti-CD3/anti-CD28 in presence of 100 μM PS or 100 μM OPLT in absence of any antigen.

[2] = test system: RAW264.7 mouse monocyte macrophage cells; experiment: SAR screen in RAW 264.7 cells with FVIII antigen, TGF-β ELISA (Example 5); format: cell-based; settings: free compounds dosed in mM range
Description: as §1
All molecules were formulated in RPMI media in aseptic conditions. The pH was adjusted to approximately 7.5 before dosing cells. 1,2-dimyristoyl-sn-glycero-3-phosphocholine (DM PC):PS liposomes were made at 70:30 molar ratio to make “PS” liposomes. The remaining liposomes were made by hydrating a DMPC lipid layer in PBS buffer containing a test compound to give a final molar ratio of 70:30 of DMPC:test compound.
as §2

Q: Which TNF-α induction ([1]; FVIII antigen) does the source give for `N[C@@H](CSc1ccccc1)C(=O)O` [SPLC, S-phenyl-L-cysteine] here?
A: failed to induce TNF-α

Q: `C[C@@H]1C[C@H]2[C@@H]3CCC4=CC(=O)C=C[C@]4(C)[C@@]3(F)[C@@H](O)C[C@]2(C)[C@@]1(O)C(=O)CO` [Dexamethasone, dexamethasone] was tested. Which TNF-α mean (TLR3; PolyI:C 0 ng/ml) did it give?
A: 0 pg/mL

Q: What about the TNF-α mean (TLR3; PolyI:C 1 ng/ml, CTL 0) of the same molecule?
A: 0 pg/mL

Q: And the TNF-α mean (TLR3; PolyI:C 10 ng/ml, CTL 109)?
A: 0 pg/mL

Q: What about the TNF-α mean (TLR3; PolyI:C 100 ng/ml, CTL 162) of the same molecule?
A: 0 pg/mL

Q: And the TNF-α mean (TLR9; ODN CpG 0 ng/ml)?
A: 0 pg/mL

Q: What about the TNF-α mean (TLR9; ODN CpG 1 ng/ml, CTL 0) of the same molecule?
A: 0 pg/mL

Q: And the TNF-α mean (TLR9; ODN CpG 10 ng/ml, CTL 338)?
A: 0 pg/mL

Q: What about the TNF-α mean (TLR9; ODN CpG 100 ng/ml, CTL 1220) of the same molecule?
A: 0 pg/mL

Q: And the TNF-α mean (TLR2; PGN 0 ng/ml)?
A: 0 pg/mL

Q: What about the TNF-α mean (TLR2; PGN 1 ng/ml, CTL 730) of the same molecule?
A: 0 pg/mL

Q: What about the TNF-α mean (TLR2; PGN 10 ng/ml, CTL 725) of the same molecule?
A: 0 pg/mL

Q: What about the TNF-α mean (TLR2; PGN 100 ng/ml, CTL 834) of the same molecule?
A: 0 pg/mL

Q: And the TNF-α mean (TLR7; Poly U 0 ng/ml)?
A: 0 pg/mL

Q: And the TNF-α mean (TLR7; Poly U 1 ng/ml, CTL 44)?
A: 0 pg/mL

Q: What about the TNF-α mean (TLR7; Poly U 10 ng/ml, CTL 51) of the same molecule?
A: 0 pg/mL

Q: And the TNF-α mean (TLR7; Poly U 100 ng/ml, CTL 229)?
A: 41 pg/mL

Q: What about the TNF-α mean (TLR4; LPS 0 ng/ml) of the same molecule?
A: 0 pg/mL

Q: What about the TNF-α mean (TLR4; LPS 1 ng/ml, CTL 143) of the same molecule?
A: 0 pg/mL

Q: What about the TNF-α mean (TLR4; LPS 10 ng/ml, CTL 840) of the same molecule?
A: 0 pg/mL

Q: And the TNF-α mean (TLR4; LPS 100 ng/ml, CTL 1091)?
A: 0 pg/mL

Q: Which TNF-α induction ([1]; FVIII antigen) does the source give for `N[C@@H](COCc1ccccc1)C(=O)O` [OBLS, O-Benzyl-L-serine] here?
A: failed to induce TNF-α

Q: Which “anti-FVIII titers versus FVIII control group” value (B57BL6 Mice) does the source give for `N[C@@H](COP(=O)(O)O)C(=O)O` [OPLS, O-phospho-L-serine, reference compound] here?
A: statistically lower than the FVIII control group

Q: And the “animals that developed anti-FVIII antibodies” value (B57BL6 Mice; 5 mg/injection + FVIII SC QW 4 weeks, FVIII control 8/8)?
A: 5/8

Q: And the “increase in FoxP3+/CD4+ compared to the FVIII alone group” value (FoxP3+/CD4+ T-cell; 5 mg/injection co-mixed with FVIII 1 μg SC QW 4 weeks, splenocytes of one animal per group one week after last dose)?
A: 66%

Q: And the “FoxP3+/CD4+ T-cell (flow cytometry of splenocytes)” value (FoxP3+/CD4+ T-cell; 5 mg/injection co-mixed with FVIII SC QW 4 weeks, one animal per group, FVIII alone 2.94)?
A: 4.89

Q: For `N[C@@H](Cc1ccc(OCc2ccccc2)cc1)C(=O)O` [OBLT, O-benzyl-L-tyrosine], which TNF-α induction ([1]; FVIII antigen) is on record?
A: failed to induce TNF-α

Q: For `N[C@@H](CSCc1ccccc1)C(=O)O` [SBLC, S-benzyl-L-cysteine], which TNF-α induction ([1]; FVIII antigen) is on record?
A: failed to induce TNF-α

Q: `CO[C@H]1C[C@@H]2CC[C@@H](C)[C@@](O)(O2)C(=O)C(=O)N2CCCC[C@H]2C(=O)O[C@H]([C@H](C)C[C@@H]2CC[C@@H](O)[C@H](OC)C2)CC(=O)[C@H](C)/C=C(\C)[C@@H](O)[C@@H](OC)C(=O)[C@H](C)C[C@H](C)/C=C/C=C/C=C/1C` [Rapamycin, rapamycin] was tested. Which TNF-α mean (TLR3; PolyI:C 0 ng/ml) did it give?
A: 0 pg/mL

Q: What about the TNF-α mean (TLR3; PolyI:C 1 ng/ml, CTL 0) of the same molecule?
A: 0 pg/mL

Q: What about the TNF-α mean (TLR3; PolyI:C 10 ng/ml, CTL 109) of the same molecule?
A: 0 pg/mL

Q: And the TNF-α mean (TLR3; PolyI:C 100 ng/ml, CTL 162)?
A: 0 pg/mL

Q: What about the TNF-α mean (TLR9; ODN CpG 0 ng/ml) of the same molecule?
A: 0 pg/mL

Q: What about the TNF-α mean (TLR9; ODN CpG 1 ng/ml, CTL 0) of the same molecule?
A: 0 pg/mL

Q: What about the TNF-α mean (TLR9; ODN CpG 10 ng/ml, CTL 338) of the same molecule?
A: 0 pg/mL

Q: And the TNF-α mean (TLR9; ODN CpG 100 ng/ml, CTL 1220)?
A: 0 pg/mL

Q: And the TNF-α mean (TLR2; PGN 0 ng/ml)?
A: 0 pg/mL

Q: And the TNF-α mean (TLR2; PGN 1 ng/ml, CTL 730)?
A: 0 pg/mL

Q: And the TNF-α mean (TLR2; PGN 10 ng/ml, CTL 725)?
A: 0 pg/mL

Q: What about the TNF-α mean (TLR2; PGN 100 ng/ml, CTL 834) of the same molecule?
A: 0 pg/mL

Q: And the TNF-α mean (TLR7; Poly U 0 ng/ml)?
A: 0 pg/mL

Q: And the TNF-α mean (TLR7; Poly U 1 ng/ml, CTL 44)?
A: 0 pg/mL

Q: And the TNF-α mean (TLR7; Poly U 10 ng/ml, CTL 51)?
A: 29 pg/mL

Q: What about the TNF-α mean (TLR7; Poly U 100 ng/ml, CTL 229) of the same molecule?
A: 14 pg/mL

Q: And the TNF-α mean (TLR4; LPS 0 ng/ml)?
A: 0 pg/mL

Q: What about the TNF-α mean (TLR4; LPS 1 ng/ml, CTL 143) of the same molecule?
A: 0 pg/mL

Q: And the TNF-α mean (TLR4; LPS 10 ng/ml, CTL 840)?
A: 0 pg/mL

Q: And the TNF-α mean (TLR4; LPS 100 ng/ml, CTL 1091)?
A: 0 pg/mL

Q: For “phosphatidyl serine [PS, reference compound]”, which “increase in Foxp3+/CD4+ compared to control” value (Splenocytes) is on record?
A: 76%

Q: What about the “fold difference between the ability of OPLS and PS to induce TNF-α” value ([1]; OPLS versus PS) of the same molecule?
A: 1,000 fold

Q: What does the source list for `N[C@@H](CCS(=O)(=O)O)C(=O)O` [LHA, L-homocysteic acid]?
A: TNF-α production (suppression) versus OPLS ([1]; free compounds dosed in mM range, FVIII antigen): more potent inhibitors of TNF-α; TGF-β production versus OPLS [2]: more potent inducers of TGF-β
